Data from patent US11661410B2 (GLOBAL BLOOD THERAPEUTICS, INC., priority 2017, dated 2023).
Where a name gives a salt, the structure may show the parent alone. Read-outs that look alike come from different tables or passages of the source. One block for each compound: values may come before it.

Columns and labels:
[1] = target: mu (μ) opiate (OP3) receptor (Homo sapiens (Human), UniProt P35372); assay: biochemical; assay type: binding; details: read-out: Mu Opiate percent inhibition
muscarinic M2 receptor = muscarinic M2 receptor (Homo sapiens (Human), UniProt P08172); assay: Safety pharmacological profiling: muscarinic M2 receptor ligand binding; details: compound at 10 μM, in duplicate; ligand binding to cell membranes; read-out: Muscarinic M2 percent inhibition
Sequence of muscarinic M2 receptor (P08172 whole entry): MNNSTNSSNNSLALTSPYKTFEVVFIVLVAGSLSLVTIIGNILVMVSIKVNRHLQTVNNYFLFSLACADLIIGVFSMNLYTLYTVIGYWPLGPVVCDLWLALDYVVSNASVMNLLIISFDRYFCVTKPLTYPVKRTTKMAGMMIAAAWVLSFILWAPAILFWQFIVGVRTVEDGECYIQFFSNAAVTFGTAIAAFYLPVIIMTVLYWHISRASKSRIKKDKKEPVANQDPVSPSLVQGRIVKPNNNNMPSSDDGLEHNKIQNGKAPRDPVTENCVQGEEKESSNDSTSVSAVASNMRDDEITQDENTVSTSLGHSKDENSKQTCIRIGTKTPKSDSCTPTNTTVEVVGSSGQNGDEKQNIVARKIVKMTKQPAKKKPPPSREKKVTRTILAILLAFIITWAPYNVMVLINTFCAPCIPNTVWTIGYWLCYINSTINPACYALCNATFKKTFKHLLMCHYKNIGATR

G9a = G9a (Homo sapiens (Human), UniProt Q96KQ7); assay: G9a AlphaLISA enzymatic activity assay; assay type: biochemical
Sequence of G9a (Q96KQ7 whole entry): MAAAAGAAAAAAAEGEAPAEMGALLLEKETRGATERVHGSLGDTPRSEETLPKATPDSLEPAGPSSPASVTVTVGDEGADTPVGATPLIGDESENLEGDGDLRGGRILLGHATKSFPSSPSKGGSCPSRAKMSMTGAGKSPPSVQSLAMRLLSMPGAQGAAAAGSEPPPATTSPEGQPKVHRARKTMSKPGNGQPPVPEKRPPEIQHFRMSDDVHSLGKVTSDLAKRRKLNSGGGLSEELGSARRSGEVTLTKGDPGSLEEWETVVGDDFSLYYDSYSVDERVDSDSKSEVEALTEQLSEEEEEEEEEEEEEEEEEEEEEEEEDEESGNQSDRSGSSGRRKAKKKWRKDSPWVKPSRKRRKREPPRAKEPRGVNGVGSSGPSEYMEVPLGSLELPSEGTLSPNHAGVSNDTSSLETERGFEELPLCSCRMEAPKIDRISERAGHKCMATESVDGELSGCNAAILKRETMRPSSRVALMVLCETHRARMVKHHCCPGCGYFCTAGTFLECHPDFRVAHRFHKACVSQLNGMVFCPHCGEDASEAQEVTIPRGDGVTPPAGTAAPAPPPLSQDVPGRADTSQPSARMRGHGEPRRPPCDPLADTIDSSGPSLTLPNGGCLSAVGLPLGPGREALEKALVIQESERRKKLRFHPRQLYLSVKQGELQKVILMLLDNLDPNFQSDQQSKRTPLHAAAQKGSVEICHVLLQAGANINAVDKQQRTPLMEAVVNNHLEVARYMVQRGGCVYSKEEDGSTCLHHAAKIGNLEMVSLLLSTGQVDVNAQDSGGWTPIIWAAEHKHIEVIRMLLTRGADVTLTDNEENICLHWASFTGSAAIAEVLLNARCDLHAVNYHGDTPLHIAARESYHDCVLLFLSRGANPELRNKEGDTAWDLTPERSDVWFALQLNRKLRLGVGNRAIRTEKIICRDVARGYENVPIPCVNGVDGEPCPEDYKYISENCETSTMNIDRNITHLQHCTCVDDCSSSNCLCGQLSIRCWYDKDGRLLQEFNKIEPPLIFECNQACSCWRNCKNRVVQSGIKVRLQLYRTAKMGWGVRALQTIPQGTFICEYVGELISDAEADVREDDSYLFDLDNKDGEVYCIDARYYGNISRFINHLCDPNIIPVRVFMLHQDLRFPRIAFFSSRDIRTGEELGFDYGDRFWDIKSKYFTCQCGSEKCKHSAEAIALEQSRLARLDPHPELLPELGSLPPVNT

[2] = G9a AlphaLISA, negative log of the IC50 value in molar

SMILES: COc1cc2nc3c(c(NC4CCNCC4)c2cc1OC)CCC3 [drawing 595]
inhibition at 10 µM [1]: 48%

SMILES: COc1cc2nc3c(c(N[C@H]4CNC[C@@H](C)C4)c2cc1OC)CCC3 [drawing 588]
inhibition at 10 µM (muscarinic M2 receptor): 75%

SMILES: COc1cc2nc3c(c(N[C@@H]4CCCCNC4)c2cc1OC)CCC3 [drawing 589]
inhibition at 10 µM (muscarinic M2 receptor): 80%

SMILES: COc1cc2nc3c(c(NC4CCN(C(C)C)CC4)c2cc1OC)CCC3
inhibition at 10 µM (muscarinic M2 receptor): 78%

SMILES: COc1cc2nc3c(c(N[C@@H]4CCCCNC4)c2cc1OC)CCC3 [drawing 597]
inhibition at 10 µM [1]: 73%

SMILES: COc1cc2c(NC(C)C)c3c(nc2cc1OCCCN1CCCC1)CCC3 [drawing 590]
inhibition at 10 µM [1]: 92%

SMILES: COc1cc2nc3c(c(N[C@@H]4CCCNC4)c2cc1OC)CCC3 [drawing 594]
inhibition at 10 µM [1]: 44%

SMILES: COc1cc2nc3c(c(N[C@@H]4CCCNCC4)c2nc1OC)CCC3 [Example 163, (4R)-N-[2,3-dimethoxy-6H,7H,8H-cyclopenta[b]1,5-naphthyridin-9-yl] azepan-4-amine]
pIC50 (G9a): 6.8

SMILES: COc1cc2nc3c(c(N[C@H]4CNC[C@@H](C)C4)c2cc1OC)CCC3 [drawing 596]
inhibition at 10 µM [1]: 23%

SMILES: COc1cc2nc3ccccc3c(NC3CCN(C(C)C)CC3)c2cc1OC [Example 47]
pIC50 (G9a): 7.1

SMILES: COc1cc2nc3c(c(NCC4CNC4)c2cc1OC)CCC3 [drawing 593]
inhibition at 10 µM [1]: 12%

SMILES: CCNc1c2c(nc3cc(OCCCN4CCCC4)c(OC)cc13)CCC2 [drawing 583]
inhibition at 10 µM (muscarinic M2 receptor): 62%

SMILES: CNc1c2c(nc3cc(OCCCOC)c(OC)cc13)CCC2 [Example 3]
pIC50 (G9a; [2]): 5.53

SMILES: COc1cc2c(NC(C)C)c3c(nc2cc1OCCCN1CCCC1)CCC3 [drawing 582]
inhibition at 10 µM (muscarinic M2 receptor): 51%

SMILES: COc1cc2nc3c(c(N[C@@H]4CCCNC4)c2cc1OC)CCC3 [drawing 586]
inhibition at 10 µM (muscarinic M2 receptor): 76%

SMILES: COc1cc2nc3c(c(N[C@H]4CCCN(C)C4)c2cc1OC)CCC3 [Example 30]
pIC50 (G9a; [2]): 7.83

SMILES: COc1cc2nc3ccccc3c(NC3CCN(C(C)C)CC3)c2cc1OC [Example 46]
pIC50 (G9a): 6.75

SMILES: COc1cc2nc3c(c(NCC4CNC4)c2cc1OC)CCC3 [drawing 585]
inhibition at 10 µM (muscarinic M2 receptor): 65%

SMILES: COc1cc2nc3c(c(NC4CCNCC4)c2cc1OC)CCC3 [drawing 587]
inhibition at 10 µM (muscarinic M2 receptor): 62%

SMILES: COc1cc2nc3c(c(NC4CCN(C(CO)CCl)CC4)c2cc1OC)CCC3 (centres unmarked) [Example 44]
pIC50 (G9a; [2]): 5.49

SMILES: CCNc1c2c(nc3cc(OCCCN4CCCC4)c(OC)cc13)CCC2 [drawing 591]
inhibition at 10 µM [1]: 92%

SMILES: COc1cc2nc3c(c(NC4CCN(c5ccc(F)cc5)CC4)c2cc1OC)CCC3
pIC50 (G9a; [2]): 6.85

Further lines, results first:

pIC50 (G9a; [2]): 7.53
SMILES: COc1cc2nc3c(c(NC4CCN(c5ccccc5F)CC4)c2cc1OC)CCC3 [Example 26]

pIC50 (G9a; [2]): 5
SMILES: COc1cc2c(NC(C)C)c3c(nc2cc1OCCOCCO)CCC3 [Example 6]

pIC50 (G9a; [2]): 7.07
SMILES: COc1cc2nc3c(c(NC4CCN(Cc5ccccc5)CC4)c2cc1OC)CCC3 [Example 45]

pIC50 (G9a; [2]): 7.6
SMILES: CCN1CCC[C@@H](Nc2c3c(nc4cc(OC)c(OC)cc24)CCC3)CC1 [Example 64, (4R)-N-{6,7-dimethoxy-1H,2H,3H-cyclopenta[b]quinolin-9-yl}-1-ethylazepan-4-amine]

pIC50 (G9a; [2]): 6.45
SMILES: COc1cc2c(NC3CCN(C(C)C)CC3)c3c(nc2cc1OCCCO)CCC3 [Example 51]

pIC50 (G9a; [2]): 5.3
SMILES: COc1cc2c(NC(C)C)c3c(nc2cc1OCCCCCO)CCC3 [Example 21]

pIC50 (G9a; [2]): 7.27
SMILES: COc1cc2nc3c(c(NC4CCN(C5CCOCC5)CC4)c2cc1OC)CCC3 [Example 16, hydrochloride]

pIC50 (G9a; [2]): 5.5
SMILES: COc1cc2nc3c(c(NC4CN(C(=O)OC(C)(C)C)C4)c2cc1OC)CCC3 [Example 12]

pIC50 (G9a; [2]): 5.42
SMILES: COc1cc2c(NC3CCN(C(C)C)CC3)c3c(nc2cc1OC(F)F)CCC3 [Example 36]

pIC50 (G9a; [2]): 6.6
SMILES: COc1cc2nc3c(c(N[C@@H]4CCCCN(C)C4)c2nc1OC)CCC3 [Example 404, (3R)-N-[2,3-dimethoxy-6H,7H,8H-cyclopenta[b]1,5-naphthyridin-9-yl]-1-methylazepan-3-amine]

IC50 (G9a; [2]): > 10 µM
SMILES: COc1cc2nc3c(c(N[C@@H]4CNCC(C)(C)C4)c2cc1OC)CCC3 [Example 415, (3S)-N-{6,7-dimethoxy-1H,2H,3H-cyclopenta[b]quinolin-9-yl}-5,5-dimethylpiperidin-3-amine]

IC50 (G9a; [2]): > 10 µM
SMILES: CCOc1cc2nc3c(c(N[C@@H]4CCCNC4)c2cc1OCC)CCC3 [Example 406, (3R)-N-[6,7-di(2H3)ethoxy-1H,2H,3H-cyclopenta[b]quinolin-9-yl]piperidin-3-amine]

pIC50 (G9a; [2]): 6.72
SMILES: COc1cc2c(NC3CCN(C(C)C)CC3)c3c(nc2cc1C1CC1)CCC3 [Example 57, N-{6-cyclopropyl-7-methoxy-1H,2H,3H-cyclopenta[b]quinolin-9-yl}-1-(propan-2-yl)piperidin-4-amine]

pIC50 (G9a; [2]): 5.53
SMILES: COc1cc2nc3c(c(NC4CCN(c5cccc(Cl)c5)CC4)c2cc1OC)CCC3 [Example 50]

pIC50 (G9a; [2]): 7.67
SMILES: CCN1CCC(Nc2c3c(nc4cc(OC)c(OC)cc24)CCC3)CC1 [Example 15]

pIC50 (G9a; [2]): 6.21
SMILES: COc1cc2nc3c(c(NC4CCN(c5ccncc5)CC4)c2cc1OC)CCC3 [Example 22]

pIC50 (G9a; [2]): 5.55
SMILES: COc1cc2nc3c(c(NC4CCN(c5ccccc5)CC4)c2cc1OC)CCC3 [Example 14]

pIC50 (G9a; [2]): 7.94
SMILES: COc1cc2c(NC3CCN(C(C)C)CC3)c3c(nc2cc1O)CCC3 [Example 35]

IC50 (G9a; [2]): 0.0126 µM
SMILES: [2H]C([2H])([2H])Oc1cc2nc3c(c(N[C@@H]4CCCNC4)c2cc1OC([2H])([2H])[2H])CCC3 [Example 405, (3R)-N-[6,7-di(2H3)methoxy-1H,2H,3H-cyclopenta[b]quinolin-9-yl]piperidin-3-amine]
